Holding throughout (type): cell-based, mouse
For data set [1], the system named is B16F10 cells. In words: Melanin production inhibitory effect test. As to conditions: 100 ppm, absorbance 475 nm. Here is the method:
To determine an inhibitory effect of the TAT-α-tyrosinase scFv antibody on melanin production in cells, B16F10 cell lines were treated with the TAT-α-tyrosinase scFv antibody and then the produced intracellular melanin content was measured. B16F10 cells, which are malignant melanoma cells, were cultured at 37° C. in the CO2 incubator. Thereafter, the cells were treated with 10 ppm of the TAT-α-tyrosinase scFv antibody and 100 ppm of arbutin as a positive control, followed by further culture under the same culture conditions. After the culture, each well was washed with PBS and 130 ul of 1 N NaOH solution was added to dissolve it at 60° C. for 1 hour.

Data set [2] deals with B16F10 cells. Description: Cytotoxicity test (MTT). The conditions noted are these: unit assumed. As for the experimental part:
In order to examine cytotoxicity of the TAT-α-tyrosinase scFv antibody, B16F10 cells, mouse-derived malignant melanoma cells, were cultured in a CO2 incubator at 37° C. After the culture, the cells were treated with the TAT-α-tyrosinase scFv antibody at different concentrations (0.1, 1, 5, 10, 50, 100 ppm), and then further cultured under the same culture conditions. After the culture, MTT{3-(4,5-Dimethylthiazol-2-yl)-2,5-Diphenyltetrazolium Bromide} solution was added and cultured. After that, the culture solution was removed, and DMSO (dimethyl sulfoxide) was added and shaken moderately.

In data set [3] the test system is B16F10 cells. In words: Reactive oxygen species inhibitory effect test. Here is the method:
In order to determine the inhibitory effect of the TAT-α-tyrosinase scFv antibody on reactive oxygen species in cells, the B16F10 cell lines were treated with the TAT-α-tyrosinase scFv antibody, and then the content of intracellular reactive oxygen species was measured using fluorescence staining. B16F10 cells, which are malignant melanoma cells, were cultured in the CO2 incubator at 37° C. Thereafter, the cells were treated with 100 ppm of the TAT-α-tyrosinase scFv antibody and 100 ppm of arbutin as a positive control, and then further cultured under the same culture conditions. After the culture, 0.2 mM hydrogen peroxide was added to each well, and then cultured for 2 hours. Carboxy-H2DCF-DA was added and reaction was carried out at 37° C. for 30 minutes. After washing with PBS, fluorescence was measured with the ELISA Reader system at 475/535 nm by re-addition of PBS, and the values are shown in Table 4.

In the case of `OC[C@H]1O[C@@H](Oc2ccc(O)cc2)[C@H](O)[C@@H](O)[C@@H]1O` [Arbutin], the “Melanin biosynthesis amount (% of control), Average” value with B16F10 cells [1] is recorded as 66.1 % of control. The Cell viability (MTT, absorbance at 570 nm), Average is 97.6% in the data set with B16F10 cells [2] (0.1 ppm); 97% in the data set on B16F10 cells [2] (1 ppm); 83.5% with B16F10 cells [2] (5 ppm); 89.3% in the data set on B16F10 cells [2] (10 ppm); 82.4% with B16F10 cells [2] (50 ppm); 57.7% in the data set with B16F10 cells [2] (100 ppm). Further, the “ROS (fold of control), Average” value was 1.29 fold of control in the data set on B16F10 cells [3] (0.2 mM H2O2, 100 ppm) and 0.82 fold of control with B16F10 cells [3] (non treat control (no H2O2), 100 ppm).

The values above are taken from patent publication US12331135B2, “Anti-tyrosinase antibody for inhibiting tyrosinase and use thereof” (HAUUL BIO, priority 2019, dated 2025).
